# Results as given in article PMC10951269, “5-HT_FAsTR: a versatile, label-free, high-throughput, fluorescence-based microplate assay to quantify serotonin transport and release” (Scientific Reports, 2024).
# Read-outs that look alike come from different tables or passages of the source.
# T1: hOCT2 (Homo sapiens, UniProt O15244)
# T1 sequence (O15244 1-555): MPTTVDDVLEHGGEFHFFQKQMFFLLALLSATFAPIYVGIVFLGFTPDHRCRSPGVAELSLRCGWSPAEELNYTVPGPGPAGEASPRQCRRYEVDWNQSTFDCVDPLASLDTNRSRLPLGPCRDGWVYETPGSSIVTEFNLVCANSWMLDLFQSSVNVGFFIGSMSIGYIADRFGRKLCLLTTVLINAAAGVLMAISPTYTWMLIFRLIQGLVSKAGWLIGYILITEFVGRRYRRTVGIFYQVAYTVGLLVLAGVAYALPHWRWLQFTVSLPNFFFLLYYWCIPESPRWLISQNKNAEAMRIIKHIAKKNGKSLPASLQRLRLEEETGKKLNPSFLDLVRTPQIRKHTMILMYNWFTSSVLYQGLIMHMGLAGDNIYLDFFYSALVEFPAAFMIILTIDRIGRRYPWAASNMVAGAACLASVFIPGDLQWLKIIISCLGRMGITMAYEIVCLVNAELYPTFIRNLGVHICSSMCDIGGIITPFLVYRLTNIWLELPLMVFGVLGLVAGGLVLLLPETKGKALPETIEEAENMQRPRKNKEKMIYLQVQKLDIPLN
# Key:
# [1] = target: T1, hOCT2; experiment: 5-HT_FAsTR fluorescence uptake inhibition assay, hOCT2; format: cell-based; settings: corresponding to the pKi
# Description: (§1) For the uptake inhibition assay determining IC50 values, the pre-incubation solutions contained 12 increasing concentrations of an hSERT or OCT2 inhibitor. […] The change in fluorescence was determined 10 min after adding the incubation solution. […] The raw data was fitted to a non-linear fit in GraphPad Prism ([inhibitor] vs response (three parameters) for hSERT data and [inhibitor] vs response – variable slope (four parameters) for hOCT2 data) and normalized to the obtained top and bottom plateau as follows: rawdata-bottomplateau/topplateau-bottomplateau . The same non-linear fit of the normalized data was used to calculate logIC50 and IC50 values. IC50 values were converted to pKi values using the Cheng-Prusoff equation[33]. pKi=pIC50/1+[S]/Km
# [2] = target: T2, hSERT (Homo sapiens, UniProt P31645); format: cell-based; set-up: expressed in transfected cells; host or cells: HEK293MSR cells stably expressing cytoplasmic iSeroSnFR; settings: 5 µM inhibitor, control experiment
# T2 sequence (P31645 whole entry): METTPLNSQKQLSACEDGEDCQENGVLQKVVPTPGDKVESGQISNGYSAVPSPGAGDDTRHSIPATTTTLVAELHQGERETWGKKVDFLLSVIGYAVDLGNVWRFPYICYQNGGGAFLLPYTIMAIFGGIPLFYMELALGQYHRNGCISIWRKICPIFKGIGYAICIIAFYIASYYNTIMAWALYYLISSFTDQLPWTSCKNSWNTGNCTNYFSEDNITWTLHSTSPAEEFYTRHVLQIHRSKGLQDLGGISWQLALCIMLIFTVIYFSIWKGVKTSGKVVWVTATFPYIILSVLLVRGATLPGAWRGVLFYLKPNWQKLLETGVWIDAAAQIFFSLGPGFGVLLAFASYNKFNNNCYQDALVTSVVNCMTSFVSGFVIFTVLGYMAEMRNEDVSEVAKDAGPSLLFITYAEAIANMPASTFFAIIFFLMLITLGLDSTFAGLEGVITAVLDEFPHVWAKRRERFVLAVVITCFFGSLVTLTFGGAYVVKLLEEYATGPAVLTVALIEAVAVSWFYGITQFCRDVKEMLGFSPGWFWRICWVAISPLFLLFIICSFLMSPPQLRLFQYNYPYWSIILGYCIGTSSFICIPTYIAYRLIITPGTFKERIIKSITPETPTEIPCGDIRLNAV
# From the text: Data were fitted in Graphpad Prism to the in-built model for Michaelis–Menten kinetics using robust non-linear regression to calculate Km and Vmax.
# [3] = tested on: iSeroSnFR; experiment: Dose-response of 5-HT binding to extracellular membrane-tethered iSeroSnFR; format: cell-based; settings: HEK293MSR cells, not saturated at 10 mM 5-HT
# From the text: Error bars represent SEM.
# (2 pictures or pasted objects on this page, not shown here)
# [4] = tested on: NCCc1c[nH]c2ccc(O)cc12; experiment: cells, lysate or membranes; settings: other: HEK293MSR_iSeroSnFR cells with hSERT, 10 min, N = 7, pH 7.4
# [5] = tested on: hSERT mutant I172M; settings: fluorescence assay; 10 µM 5-HT; N = 3
# Description: as §1
# [6] = tested on: hSERT mutant I172M; settings: radiotracer assay; 10 µM [3H]5-HT; N = 3
# Description: The uptake was terminated by washing the cells with ice-cold PBSCM, 50 µl Microscint (Perkin Elmer) was added and radioactivity was counted in a TopCounter microplate scintillation counter approximately one hour after microscint addition. The raw data was fitted to a non-linear fit in GraphPad Prism ([inhibitor] vs response (three parameters)) and normalized to the obtained top and bottom plateau as follows: rawdata-bottomplateau/topplateau-bottomplateau . The same non-linear fit of the normalized data was used to calculate logIC50 and IC50 values.
# [7] = target: T2, hSERT; experiment: 5-HT_FAsTR fluorescence efflux assay
# Description: The efflux inducing drug was added at time point 0 and a time window showing efflux in the linear range was chosen for further analysis. The fluorescence intensity measured in response to the drug was normalized to the mean fluorescence intensity measured 2.5 min, 5 min and 7.5 min before the addition of the drug. A simple linear regression was performed with GraphPad Prism for the time window showing efflux in the linear range and the slope of the linear decrease in fluorescence in response to the drug was plotted against increasing drug concentrations. A non-linear fit ([Inhibitor] vs. response (three parameters), GraphPad Prism) was used to calculate EC50 as well as the top and bottom plateau. The drug-induced efflux was calculated by subtracting the top plateau from the bottom plateau.
# [8] = substrate: NCCc1c[nH]c2ccc(O)cc12; experiment: cells, lysate or membranes; settings: other: hOCT2-transfected cells; non-specific uptake determined with imipramine; N = 3; pH 7.4
molecule,measurement,setting,value
C[Se+](C)CCCN1c2ccccc2CCc2ccc(Cl)cc21 [MJ1-53],Ki,[1],0.164 µM
same,effect of blocking the serotonin transporter on 5-HT uptake (fluorescence intensity),[2],abolishes 5-HT uptake
"NCCc1c[nH]c2ccc(O)cc12 [5-HT, 5-hydroxytryptamine]",EC50,[3],≥ 1520 µM
hSERT (Homo sapiens),Km,[4]; non-specific uptake determined with MJ1-53,1.25 ± 0.48 µM
same,Km,[4]; non-specific uptake determined with S-Citalopram,1.79 ± 0.19 µM
CNC(C)Cc1ccc2c(c1)OCO2 (stereo not drawn) [MDMA],"fold decrease in potency, hSERT I172M compared to wild type (IC50 ratio)",[5],did not show any change
same,"fold decrease in potency, hSERT I172M compared to wild type (IC50 ratio)",[6],did not show any change
same,EC50,[7],6.22 ± 1.62 µM
same,fluorescence change ± SEM (drug-induced efflux rate),"[7]; hSERT not present (empty vector), preloaded with 5-HT, N = 3",0.06 ± 0.01 %/minute
same,maximum fluorescence change ± SEM (drug-induced efflux rate),"[7]; hSERT-transfected cells preloaded with 10 µM 5-HT, N = 6",0.66 ± 0.13 %/minute
same,release of 5-HT relative to background levels from passive diffusion,[7]; hSERT-transfected cells vs background,at least 11 fold
hOCT2 (Homo sapiens) (protein) MPTTVDDVLEHGGEFHFFQKQMFFLLALLSATFAPIYVGIVFLGFTPDHRCRSPGVAELSLRCGWSPAEELNYTVPGPGPAGEASPRQCRRYEVDWNQSTFDCVDPLASLDTNRSRLPLGPCRDGWVYETPGSSIVTEFNLVCANSWMLDLFQSSVNVGFFIGSMSIGYIADRFGRKLCLLTTVLINAAAGVLMAISPTYTWMLIFRLIQGLVSKAGWLIGYILITEFVGRRYRRTVGIFYQVAYTVGLLVLAGVAYALPHWRWLQFTVSLPNFFFLLYYWCIPESPRWLISQNKNAEAMRIIKHIAKKNGKSLPASLQRLRLEEETGKKLNPSFLDLVRTPQIRKHTMILMYNWFTSSVLYQGLIMHMGLAGDNIYLDFFYSALVEFPAAFMIILTIDRIGRRYPWAASNMVAGAACLASVFIPGDLQWLKIIISCLGRMGITMAYEIVCLVNAELYPTFIRNLGVHICSSMCDIGGIITPFLVYRLTNIWLELPLMVFGVLGLVAGGLVLLLPETKGKALPETIEEAENMQRPRKNKEKMIYLQVQKLDIPLN,Km,[8],183.6 ± 65.18 µM
